Test [1] has as its target T1, heterotetrameric CNGA2:CNGA4:CNGB1b channels (Rattus norvegicus, UniProt A0A8I5ZN27+Q00195+Q64359).
T1 construct: expressed in transfected cells; host or cells: Xenopus laevis oocytes co-injected with cRNAs (2:1:1); inside-out patches
Briefly: Concentration-activation relationship of heterotetrameric CNGA2:CNGA4:CNGB1b channels, inside-out patches of Xenopus oocytes. The test is classed as cell-based. As to the method:
(§1) For each cNMP derivative a complete concentration-activation relationship was recorded, and the data points were fitted with the Hill equation (equation 1) yielding the concentration of half maximum activation (EC50) and the Hill coefficient H (Fig. 1b,c).
(§2) The subunits CNGA2 (accession No. AF126808), CNGA4 (accession No. U12623) and CNGB1b (accession No. AF068572) of rat olfactory channels as well as mouse HCN2 channels (NM008226) were subcloned in front of the T7 promoter of pGEMHEnew. The respective cRNAs were produced by using the mMESSAGE mMACHINE T7 Kit (Ambion, Austin, TX).
(§3) Oocytes at stages IV and V were injected with 50–130 ng of cRNA encoding either CNGA2, CNGA2:CNGA4:CNGB1b (2:1:1 ratio) or HCN2 channels either manually of or by means of an injection robot (RoboInject®). The injected oocytes were incubated at 18 °C for up to 6 days in Barth’s solution containing (in mM) 84 NaCl, 1 KCl, 2.4 NaHCO3, 0.82 MgSO4, 0.41 CaCl2, 0.33 Ca(NO3)2, 7.5 TRIS, cefuroxime (4.0 µg × ml^−1), and penicillin/streptomycin (100 µg × ml^−1), pH 7.4.
(§4) Macroscopic currents were recorded from inside-out patches of the oocytes by using standard patch-clamp techniques. The patch pipettes were pulled from quartz tubing (P-2000, Sutter Instrument, Novato, USA) with an outer and inner diameter of 1.0 and 0.7 mm (VITROCOM, New Jersey, USA). The corresponding pipette resistance was 0.9–2.3 MΩ. The bath and pipette solution contained (in mM): 150 KCl, 1 EGTA, 5 Hepes (pH 7.4 with KOH) for CNG measurements. For HCN measurements the bath solution contained 100 mM KCl, 10 mM EGTA, 10 mM HEPES (pH 7.2) and 120 mM KCl, 10 mM HEPES, and 1.0 mM CaCl2 (pH 7.2) in the pipette. Recording was carried out at room temperature using an Axopatch 200B amplifier (Axon Instruments, Foster City, CA). Electrophysiology was controlled by the Patchmaster-software (HEKA Elektronik Dr. Schulze GmbH, Lambrecht, Germany). The sampling rate was 5 kHz and the filter implemented in the amplifier (4-pole Bessel) was set to 2 kHz. Measurements in HCN2 channels were generally started 3.5 min after patch excision to minimize channel run down during the measurement[14],[27],[70]. The solutions with the ligand concentrations to be tested were applied via a multi-barrel device to the patches with a flow rate of 0.8 to 1.2 ml/min.
(§5) I is the actual current amplitude and Imax the maximum current amplitude at a saturating cNMP concentration specified for each cNMP and channel. EC50 is the cNMP concentration generating the half maximum current and H the Hill coefficient.

Test [2] has as its target T2, homotetrameric CNGA2 channels (Rattus norvegicus, UniProt Q00195).
T2 construct: expressed in transfected cells; host or cells: Xenopus laevis oocytes injected with cRNA; inside-out patches
T2 sequence (Q00195 1-664): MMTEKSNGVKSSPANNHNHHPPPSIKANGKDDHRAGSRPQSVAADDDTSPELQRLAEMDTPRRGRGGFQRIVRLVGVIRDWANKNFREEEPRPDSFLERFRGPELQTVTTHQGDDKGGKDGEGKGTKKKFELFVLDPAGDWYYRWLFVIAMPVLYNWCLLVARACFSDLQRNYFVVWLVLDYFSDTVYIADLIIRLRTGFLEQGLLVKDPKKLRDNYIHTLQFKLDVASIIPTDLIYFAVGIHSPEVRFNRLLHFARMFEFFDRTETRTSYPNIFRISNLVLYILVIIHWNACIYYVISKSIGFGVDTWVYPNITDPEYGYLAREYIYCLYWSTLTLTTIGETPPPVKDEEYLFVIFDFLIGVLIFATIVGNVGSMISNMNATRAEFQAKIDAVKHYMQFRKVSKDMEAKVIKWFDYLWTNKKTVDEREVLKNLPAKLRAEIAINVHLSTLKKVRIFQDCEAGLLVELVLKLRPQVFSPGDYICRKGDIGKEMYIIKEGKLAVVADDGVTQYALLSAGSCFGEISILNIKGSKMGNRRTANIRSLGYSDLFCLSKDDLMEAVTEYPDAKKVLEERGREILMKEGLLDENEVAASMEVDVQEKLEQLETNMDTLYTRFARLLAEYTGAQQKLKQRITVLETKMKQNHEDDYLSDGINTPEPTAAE
Nature of the test: Concentration-activation relationship of homotetrameric CNGA2 channels, inside-out patches of Xenopus oocytes. It is filed as cell-based. As to the method: as §1, §2, §3, §4, §5

Where [3] appears, read: fit of the concentration-activation relationship shown in Fig. 1c, CNGA2:CNGA4:CNGB1b channels.
[4] abbreviates: heterotetrameric CNGA2:CNGA4:CNGB1b channels, late current at +10 mV, mean.
[5] abbreviates: heterotetrameric CNGA2:CNGA4:CNGB1b channels, mean.
Setting [6] is: fit of the concentration-activation relationship shown in Fig. 1b, CNGA2 channels.
Setting [7] is: homotetrameric CNGA2 channels, late current at +10 mV, mean.
[8] abbreviates: homotetrameric CNGA2 channels, mean.
Where [9] appears, read: CNGA2 channels, numeric mean values of box plots (Fig. 2a,b, Fig. 3) and text.

The source of these data is article PMC6175941, “Hydrophobic alkyl chains substituted to the 8-position of cyclic nucleotides enhance activation of CNG and HCN channels by an intricate enthalpy - entropy compensation” (Scientific Reports, 2018).

SMILES strings stand for the structures.

T1 sequence (Q64359 whole entry, one chain of several): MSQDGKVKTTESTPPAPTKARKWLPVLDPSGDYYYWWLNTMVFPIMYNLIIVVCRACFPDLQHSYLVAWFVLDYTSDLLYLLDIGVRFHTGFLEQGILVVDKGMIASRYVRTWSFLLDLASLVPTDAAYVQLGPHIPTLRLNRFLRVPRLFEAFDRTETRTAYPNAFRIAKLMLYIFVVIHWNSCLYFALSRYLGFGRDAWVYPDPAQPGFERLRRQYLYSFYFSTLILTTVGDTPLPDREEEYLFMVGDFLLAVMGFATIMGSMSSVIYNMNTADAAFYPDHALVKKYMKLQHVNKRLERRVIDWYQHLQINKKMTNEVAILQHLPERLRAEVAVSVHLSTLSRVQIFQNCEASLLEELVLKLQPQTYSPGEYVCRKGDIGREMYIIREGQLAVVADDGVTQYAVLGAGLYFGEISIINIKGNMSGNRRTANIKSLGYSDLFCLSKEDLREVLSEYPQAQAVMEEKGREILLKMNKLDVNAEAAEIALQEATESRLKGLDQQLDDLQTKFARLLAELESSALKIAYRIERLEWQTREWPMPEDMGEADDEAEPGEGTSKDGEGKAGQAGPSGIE
T1 sequence (A0A8I5ZN27 1-858 isoform A0A8I5ZN27-2, one chain of several): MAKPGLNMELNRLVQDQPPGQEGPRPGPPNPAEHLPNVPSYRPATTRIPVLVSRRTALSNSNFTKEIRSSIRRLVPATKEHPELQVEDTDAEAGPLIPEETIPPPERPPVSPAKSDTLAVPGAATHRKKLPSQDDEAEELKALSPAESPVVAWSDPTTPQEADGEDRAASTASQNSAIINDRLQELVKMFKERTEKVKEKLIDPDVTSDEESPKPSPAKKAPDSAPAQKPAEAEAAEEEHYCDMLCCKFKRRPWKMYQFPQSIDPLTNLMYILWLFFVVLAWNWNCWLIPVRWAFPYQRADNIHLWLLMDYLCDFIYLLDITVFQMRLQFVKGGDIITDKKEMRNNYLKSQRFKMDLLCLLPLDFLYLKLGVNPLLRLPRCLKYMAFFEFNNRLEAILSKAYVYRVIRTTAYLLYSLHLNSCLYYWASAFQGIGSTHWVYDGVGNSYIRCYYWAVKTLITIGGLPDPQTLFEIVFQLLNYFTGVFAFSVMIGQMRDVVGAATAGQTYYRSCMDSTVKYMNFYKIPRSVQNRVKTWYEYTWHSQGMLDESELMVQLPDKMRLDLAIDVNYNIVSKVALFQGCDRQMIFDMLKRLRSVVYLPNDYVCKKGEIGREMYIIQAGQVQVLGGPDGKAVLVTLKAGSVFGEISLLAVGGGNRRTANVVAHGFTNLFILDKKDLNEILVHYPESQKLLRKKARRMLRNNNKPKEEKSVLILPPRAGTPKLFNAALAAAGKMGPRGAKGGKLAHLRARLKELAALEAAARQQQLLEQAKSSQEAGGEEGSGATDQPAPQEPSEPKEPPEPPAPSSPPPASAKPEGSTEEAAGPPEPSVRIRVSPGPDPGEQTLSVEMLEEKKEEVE

In the case of `Nc1nc2c(ncn2C2OC3COP(=O)(O)OC3C2O)c(=O)[nH]1` (stereo not drawn) [1G, cGMP, reference compound], the EC50 in test [1] (setting [3]) was 1240 nM; in test [1] (setting [4]), 1300 nM; in test [2] (setting [6]), 1470 nM; in test [2] (setting [7]), 1800 nM. Besides, the H in test [1] (setting [3]) was 2.09; in test [2] (setting [6]), 2.52. Moreover, the results for the “H (Hill coefficient)” value in test [1] (setting [5]) and in test [2] (setting [8]) were 2.5 and 2.6, respectively.
For the molecule `NCCSc1nc2c(N)ncnc2n1C1OC2COP(=O)(O)OC2C1O` (stereo not drawn) [2A, 8-AET-cAMP], the EC50 was found to be 13300 nM in test [1] (setting [4]) and 128000 nM in test [2] (setting [9]). In test [2] (CNGA2 channels), the agonist type entry is reported as “partial agonist”. Besides, the “H (Hill coefficient)” value in test [2] (setting [8]) is listed as 1.8.
Take `NCCSc1nc2c(=O)[nH]c(N)nc2n1C1OC2COP(=O)(O)OC2C1O` (stereo not drawn) [2G, 8-AET-cGMP]: the concentration giving a half-maximal response (EC50) amounted to 1500 nM in test [1] (setting [4]) and 830 nM in test [2] (setting [9]). Further, the “H (Hill coefficient)” value in test [1] (setting [5]) stood at 1.8; in test [2] (setting [8]) it was 2.4.
Taken in the same sequence, the figures for `CC(=O)NCCSc1nc2c(=O)[nH]c(N)nc2n1C1OC2COP(=O)(O)OC2C1O` (stereo not drawn) [3G, 8-(Ac)AET-cGMP] were 280 nM, 170 nM, 2.0 and 1.8.
Regarding `NCCCCCCSc1nc2c(N)ncnc2n1C1OC2COP(=O)(O)OC2C1O` (stereo not drawn) [4A, 8-AHT-cAMP], the half-maximal effective concentration (EC50) is 1400 nM in test [1] (setting [4]) and 3100 nM in test [2] (setting [7]). Moreover, the “H (Hill coefficient)” value in test [1] (setting [5]) is given as 2.5; in test [2] (setting [8]) it was 2.3.
On the same counts, the results for `NCCCCCCSc1nc2c(=O)[nH]c(N)nc2n1C1OC2COP(=O)(O)OC2C1O` (stereo not drawn) [4G, 8-AHT-cGMP] are 620 nM, 90 nM, 1.3 and 2.5.
Turning to `NCCCCCCCCCCSc1nc2c(N)ncnc2n1C1OC2COP(=O)(O)OC2C1O` (stereo not drawn) [6A, 8-ADT-cAMP], the “effect at high concentration” value in test [1] (CNGA2:CNGA4:CNGB1b channels, at concentrations > 2 µM) is given as “unusual inhibition”. Moreover, the results for the concentration for a half-maximal effect (EC50) in test [1] (setting [4]) and in test [2] (setting [7]) were 290 nM and 630 nM, respectively. In addition, the “H (Hill coefficient)” value was 3.9 in test [1] (setting [5]) and 2.3 in test [2] (setting [8]).
Turning to `NCCCCCCCCCCSc1nc2c(=O)[nH]c(N)nc2n1C1OC2COP(=O)(O)OC2C1O` (stereo not drawn) [6G, 8-ADT-cGMP], the results for the EC50 in test [1] (setting [4]) and in test [2] (setting [7]) were 300 nM and 60 nM, respectively. Moreover, the entries for the “H (Hill coefficient)” value in test [1] (setting [5]) and in test [2] (setting [8]) were 1.6 and 1.8, respectively.
On the same counts, the results for `CC(=O)NCCCCCCCCCCSc1nc2c(=O)[nH]c(N)nc2n1C1OC2COP(=O)(O)OC2C1O` (stereo not drawn) [7G, 8-(Ac)ADT-cGMP] are 140 nM, 50 nM, 1.9 and 2.2.
Taken in the same sequence, the figures for `CC(=O)NCCOCCOCCSc1nc2c(=O)[nH]c(N)nc2n1C1OC2COP(=O)(O)OC2C1O` (stereo not drawn) [8G, 8-(Ac)APT-cGMP] were 1100 nM, 550 nM, 1.6 and 2.7.
On the same counts, the results for `CC(=O)NCCOCCOCCC(=O)NCCSc1nc2c(N)ncnc2n1C1OC2COP(=O)(O)OC2C1O` (stereo not drawn) [9A, 8-(Ac)APET-cAMP] are 7100 nM, 46200 nM, 2.2 and 2.3.
With `CC(=O)NCCOCCOCCC(=O)NCCSc1nc2c(=O)[nH]c(N)nc2n1C1OC2COP(=O)(O)OC2C1O` (stereo not drawn) [9G, 8-(Ac)APET-cGMP], the results for the concentration for a half-maximal effect (EC50) in test [1] (setting [4]) and in test [2] (setting [7]) were 1100 nM and 520 nM, respectively. Also, the “H (Hill coefficient)” value stood at 2.0 in test [1] (setting [5]) and 2.3 in test [2] (setting [8]).
With `CC(=O)NCC(=O)NCCSc1nc2c(=O)[nH]c(N)nc2n1C1OC2COP(=O)(O)OC2C1O` (stereo not drawn) [10G, 8-(Ac)AGET-cGMP], the EC50 in test [1] (setting [4]) is 630 nM; in test [2] (setting [7]), 340 nM. In addition, the results for the “H (Hill coefficient)” value in test [1] (setting [5]) and in test [2] (setting [8]) were 1.9 and 2.6, respectively.
Consider `CC(=O)NCC(=O)NCC(=O)NCCSc1nc2c(N)ncnc2n1C1OC2COP(=O)(O)OC2C1O` (stereo not drawn) [11A, 8-(Ac)AGGET-cAMP], for which the EC50 turned out to be 5100 nM in test [1] (setting [4]), 29400 nM in test [2] (setting [9]) and 29400 nM in test [2] (setting [7]). Besides, the “H (Hill coefficient)” value is 2.5 in test [1] (setting [5]) and 1.9 in test [2] (setting [8]).
Consider `CC(=O)NCC(=O)NCC(=O)NCCSc1nc2c(=O)[nH]c(N)nc2n1C1OC2COP(=O)(O)OC2C1O` (stereo not drawn) [11G, 8-(Ac)AGGET-cGMP], for which the EC50 came to 1000 nM in test [1] (setting [4]) and 330 nM in test [2] (setting [7]). In addition, the results for the “H (Hill coefficient)” value in test [1] (setting [5]) and in test [2] (setting [8]) were 1.7 and 2.4, respectively.
